Assay [1] has as its target T1, Inhibitor of nuclear factor kappa-B kinase subunit beta (Homo sapiens) (UniProt O14920).
T1 sequence (whole entry): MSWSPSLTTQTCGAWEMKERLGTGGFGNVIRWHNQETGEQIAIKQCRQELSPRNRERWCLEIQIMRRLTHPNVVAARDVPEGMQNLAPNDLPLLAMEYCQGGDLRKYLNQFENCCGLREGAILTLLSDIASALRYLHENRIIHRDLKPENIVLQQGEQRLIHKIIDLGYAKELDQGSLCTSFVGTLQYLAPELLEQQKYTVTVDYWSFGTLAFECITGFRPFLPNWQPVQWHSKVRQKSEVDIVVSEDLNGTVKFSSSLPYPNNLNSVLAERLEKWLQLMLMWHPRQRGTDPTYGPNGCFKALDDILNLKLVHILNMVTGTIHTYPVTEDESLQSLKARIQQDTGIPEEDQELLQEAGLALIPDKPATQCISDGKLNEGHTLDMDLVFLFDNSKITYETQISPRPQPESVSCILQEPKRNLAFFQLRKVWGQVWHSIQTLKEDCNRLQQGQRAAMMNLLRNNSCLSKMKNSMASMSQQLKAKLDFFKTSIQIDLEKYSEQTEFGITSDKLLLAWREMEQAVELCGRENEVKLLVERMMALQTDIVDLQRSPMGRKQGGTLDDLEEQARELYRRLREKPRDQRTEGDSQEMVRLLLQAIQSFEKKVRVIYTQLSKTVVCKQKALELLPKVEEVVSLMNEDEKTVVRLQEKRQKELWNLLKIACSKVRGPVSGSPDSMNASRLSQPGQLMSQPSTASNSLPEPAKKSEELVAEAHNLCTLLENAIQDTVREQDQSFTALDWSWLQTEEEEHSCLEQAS
Nature of the assay: Inhibition of IKK-beta (unknown origin) assessed as residual activity at 1000 nM by KINOMEscan analysis relative to control.

In assay [2] the target is MAP kinase-interacting serine/threonine-protein kinase 2 (Homo sapiens) (UniProt Q9HBH9). Nature of the assay: Inhibition of MKNK2 (unknown origin) assessed as residual activity at 1000 nM by KINOMEscan analysis relative to control.
Assay [3] relates to Phosphatidylinositol 4,5-bisphosphate 3-kinase catalytic subunit alpha isoform (Homo sapiens), P42336 [E545A]. Put plainly: Inhibition of PIK3CA E545A mutant (unknown origin) assessed as residual activity at 1000 nM by KINOMEscan analysis relative to control.
Assay [4] concerns the target T2, Mitogen-activated protein kinase kinase kinase kinase 2 (Homo sapiens) (UniProt Q12851).
T2 sequence (whole entry): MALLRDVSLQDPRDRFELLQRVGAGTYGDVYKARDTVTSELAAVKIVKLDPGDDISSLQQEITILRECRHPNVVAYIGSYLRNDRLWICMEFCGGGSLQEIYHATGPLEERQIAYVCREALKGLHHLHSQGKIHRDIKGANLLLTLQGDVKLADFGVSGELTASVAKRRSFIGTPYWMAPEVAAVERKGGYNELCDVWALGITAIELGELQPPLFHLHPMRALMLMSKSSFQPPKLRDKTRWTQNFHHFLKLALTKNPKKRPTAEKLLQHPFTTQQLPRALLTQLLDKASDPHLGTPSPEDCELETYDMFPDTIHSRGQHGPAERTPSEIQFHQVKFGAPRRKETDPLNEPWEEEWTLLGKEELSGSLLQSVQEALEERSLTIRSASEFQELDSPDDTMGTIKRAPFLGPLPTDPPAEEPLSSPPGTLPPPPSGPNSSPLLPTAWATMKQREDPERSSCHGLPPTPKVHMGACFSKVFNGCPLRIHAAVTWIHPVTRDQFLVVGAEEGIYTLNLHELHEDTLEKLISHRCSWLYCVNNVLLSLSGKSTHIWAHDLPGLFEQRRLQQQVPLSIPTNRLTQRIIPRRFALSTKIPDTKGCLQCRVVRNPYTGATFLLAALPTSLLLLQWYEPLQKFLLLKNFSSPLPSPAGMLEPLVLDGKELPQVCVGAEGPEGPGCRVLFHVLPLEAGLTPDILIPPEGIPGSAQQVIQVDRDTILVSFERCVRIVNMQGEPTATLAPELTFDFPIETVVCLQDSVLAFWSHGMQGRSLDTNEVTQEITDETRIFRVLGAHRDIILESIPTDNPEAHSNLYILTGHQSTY
Put plainly: Inhibition of MAP4K2 (unknown origin) assessed as residual activity at 1000 nM by KINOMEscan analysis relative to control.

Assay [5] has as its target Atypical kinase COQ8A, mitochondrial (Homo sapiens) (UniProt Q8NI60). Nature of the assay: Inhibition of ADCK3 (unknown origin) assessed as residual activity at 1000 nM by KINOMEscan analysis relative to control.

Molecules are shown by their SMILES.

MAP kinase-interacting serine/threonine-protein kinase 2 (Homo sapiens), sequence (Q9HBH9 whole entry, looked up, canonical isoform): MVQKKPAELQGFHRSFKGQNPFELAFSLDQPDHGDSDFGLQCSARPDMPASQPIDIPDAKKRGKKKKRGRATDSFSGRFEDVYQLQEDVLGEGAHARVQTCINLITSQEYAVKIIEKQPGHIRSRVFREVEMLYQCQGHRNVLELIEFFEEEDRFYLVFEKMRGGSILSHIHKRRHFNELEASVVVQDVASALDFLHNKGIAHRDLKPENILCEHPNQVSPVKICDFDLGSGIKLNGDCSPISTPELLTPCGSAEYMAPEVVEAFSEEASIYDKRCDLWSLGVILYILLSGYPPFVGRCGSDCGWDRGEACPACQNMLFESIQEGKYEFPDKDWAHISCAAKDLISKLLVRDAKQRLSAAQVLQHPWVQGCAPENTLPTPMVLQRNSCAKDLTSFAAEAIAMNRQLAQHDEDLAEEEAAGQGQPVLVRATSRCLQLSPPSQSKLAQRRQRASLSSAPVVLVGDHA
Phosphatidylinositol 4,5-bisphosphate 3-kinase catalytic subunit alpha isoform (Homo sapiens), P42336 [E545A], sequence (P42336 whole entry E545A, canonical isoform): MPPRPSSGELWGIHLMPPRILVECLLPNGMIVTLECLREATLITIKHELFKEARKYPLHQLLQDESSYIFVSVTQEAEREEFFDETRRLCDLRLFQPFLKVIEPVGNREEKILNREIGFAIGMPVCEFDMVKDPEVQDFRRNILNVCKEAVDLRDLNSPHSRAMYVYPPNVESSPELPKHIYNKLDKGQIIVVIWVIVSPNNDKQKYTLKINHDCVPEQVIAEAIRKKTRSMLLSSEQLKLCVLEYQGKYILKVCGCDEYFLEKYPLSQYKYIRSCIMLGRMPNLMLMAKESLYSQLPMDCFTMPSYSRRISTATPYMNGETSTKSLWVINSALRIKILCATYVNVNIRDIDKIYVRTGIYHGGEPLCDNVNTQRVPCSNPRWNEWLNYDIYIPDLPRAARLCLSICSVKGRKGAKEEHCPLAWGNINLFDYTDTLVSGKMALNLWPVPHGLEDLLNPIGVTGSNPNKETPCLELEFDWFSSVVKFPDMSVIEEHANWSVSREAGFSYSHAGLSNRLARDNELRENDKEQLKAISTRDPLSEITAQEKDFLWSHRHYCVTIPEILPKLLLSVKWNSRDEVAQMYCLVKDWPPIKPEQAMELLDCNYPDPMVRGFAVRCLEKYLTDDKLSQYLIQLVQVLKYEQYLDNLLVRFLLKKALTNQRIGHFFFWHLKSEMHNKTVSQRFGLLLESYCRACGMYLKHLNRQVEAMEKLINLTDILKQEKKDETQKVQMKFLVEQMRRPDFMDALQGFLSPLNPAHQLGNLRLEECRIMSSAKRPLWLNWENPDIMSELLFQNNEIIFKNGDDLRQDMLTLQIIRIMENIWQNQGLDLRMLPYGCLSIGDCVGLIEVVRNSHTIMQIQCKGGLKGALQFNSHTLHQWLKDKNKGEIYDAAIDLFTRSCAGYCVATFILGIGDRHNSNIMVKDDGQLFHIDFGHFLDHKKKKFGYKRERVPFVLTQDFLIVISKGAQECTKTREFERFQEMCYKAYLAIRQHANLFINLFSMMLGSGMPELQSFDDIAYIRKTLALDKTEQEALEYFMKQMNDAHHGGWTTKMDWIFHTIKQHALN
Atypical kinase COQ8A, mitochondrial (Homo sapiens), sequence (Q8NI60 163-647 limits assumed): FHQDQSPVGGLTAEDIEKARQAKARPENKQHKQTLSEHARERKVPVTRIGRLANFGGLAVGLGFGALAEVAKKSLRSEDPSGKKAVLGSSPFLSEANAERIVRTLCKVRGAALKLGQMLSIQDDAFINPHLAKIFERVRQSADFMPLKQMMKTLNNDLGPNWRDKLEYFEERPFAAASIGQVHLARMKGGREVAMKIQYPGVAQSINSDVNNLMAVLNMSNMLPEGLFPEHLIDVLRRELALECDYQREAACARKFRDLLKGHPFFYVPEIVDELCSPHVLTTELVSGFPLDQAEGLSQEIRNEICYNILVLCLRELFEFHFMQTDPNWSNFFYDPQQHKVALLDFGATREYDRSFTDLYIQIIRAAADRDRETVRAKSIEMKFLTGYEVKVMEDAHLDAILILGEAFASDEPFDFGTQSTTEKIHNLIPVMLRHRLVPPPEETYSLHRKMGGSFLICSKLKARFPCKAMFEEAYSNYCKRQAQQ

Consider `COc1cc2ncnc(N[C@H](C)c3cccc4ccccc34)c2cc1OC`, for which the Activity in assay [1] came to 82%; in assay [2], 100%; in assay [3], 91%; in assay [4], 78%; in assay [5] it was 94%.

Turning to `COc1cc2nc(C)nc(N[C@H](C)c3cccc(-c4cn[nH]c4)c3)c2cc1OC`, the Activity in assay [1] came to 73%; in assay [2], 89%; in assay [3] it was 66%; in assay [4] it was 100%; in assay [5] it was 98%.

Values taken from ChEMBL document CHEMBL5678818, “Discovery of potent SOS1 inhibitors that block RAS activation via disruption of the RAS-SOS1 interaction” (Proc Natl Acad Sci U S A, 2019).
